{"source": "patent US8273761B2", "about": "“Tricyclic compound and medical use thereof” (Takeda Pharmaceutical Company Limited, priority 2006, dated 2012)", "molecular_target": "T1, human melatonin 1 receptors (human MT1 receptors) (Homo sapiens, UniProt P48039)", "T1 construct": "expressed in transfected cells", "T1 sequence (P48039 whole entry)": "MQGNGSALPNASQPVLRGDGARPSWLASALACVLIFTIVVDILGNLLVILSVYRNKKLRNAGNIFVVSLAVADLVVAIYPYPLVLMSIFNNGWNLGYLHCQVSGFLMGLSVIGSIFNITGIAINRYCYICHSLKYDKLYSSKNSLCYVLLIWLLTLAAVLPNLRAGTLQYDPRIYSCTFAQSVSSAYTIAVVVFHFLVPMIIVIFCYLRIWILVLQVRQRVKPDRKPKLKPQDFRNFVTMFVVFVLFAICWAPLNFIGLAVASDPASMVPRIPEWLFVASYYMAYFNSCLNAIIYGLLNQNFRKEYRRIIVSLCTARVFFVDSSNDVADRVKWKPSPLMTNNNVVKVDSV", "assay": "Melatonin receptor binding inhibitory test (MT1)", "conditions": "2-[125I] Iodomelatonin 400 pM solution, membrane fraction of CHO-hMelR7 cells, 25° C. for 2.5 hr", "procedure": "Biochim Biophys Acta. Vol. 1219(2), pp. 251-259, 1994) to give plasmid pAKKO-hMelR7 for animal cell expression. CHO/dhfr-cells (ATCC, #CRL-9096) were plated at a concentration of 0.3×10^6 cells/dish in a 6 cm culture dish (Becton Dickinson), and cultured under the conditions of 37° C., 5% CO2 for 48 hr. The cells were transfected with pAKKO-hMelR7 plasmid DNA (5 μg) using […] Transfection Kit (Amersham, #27-9268-01). The transfected cells were cultured in Dulbecco's modified Eagle medium (DMEM) (Sigma, #D6046) containing 10% dialyzed FBS ([…]), 1× Non-Essential Amino Acid (Invitrogen, #11140-050) and 50 μg/mL Gentamycin (Invitrogen, #15750-060), and the cell line that stably expressed the plasmid gene was selected. By a receptor binding assay using 2-[^125I] […] (3) Preparation of Cellular Membrane Fraction of CHO Cell (CHO-hMelR7 and CHO-hMT2) Stably Expressing Human MT1 and MT2 Receptors CHO-hMelR7 and CHO-hMT2 cells were plated using Cellfactory (Nunc, #170009) under the conditions of 1×10^8 cells/2000 mL/flask. The cells were grown to confluent, and recovered by the following method. As the medium for CHO-hMelR7 and CHO-hMT2, MEM α containing 10% FBS and penicillin/streptomycin was used. 300 ng/mL of geneticin was added to the medium for CHO-hMT2. The medium was discarded, cells were washed twice with 200 mL of EDTA/PBS(-), 200 mL of EDTA/PBS(-) was further added, and the cells were stood still at room temperature for 20 min until they were released. The cells were recovered in four 50 mL tubes (Becton Dickinson, #352070), and centrifuged at 1,500 rpm for 10 min at 4° C. using a low speed cooling centrifuge (Hitachi, CF7D2). The supernatant was discarded, the pellets in the four tubes were suspended in 10 mL of PBS(-), and combined in one tube (Becton Dickinson, #352070). The mixture was further centrifuged at 1,500 rpm for 10 min at 4° C., and the obtained pellets were suspended in 20 mL of ice-cooled homogenizing buffer [10 mM NaHCO3, 5 mM EDTA, Protease inhibitor Complete (Roche), pH 7.4]. The cell suspension was homogenized 3 times using a polytron homogenizer at 20,000 rpm for 30 sec. The obtained homogenate was centrifuged (2,000 rpm, 10 min, 4° C.) using a low speed cooling centrifuge. The supernatant was recovered in an ultracentrifugation tube and ultracentrifuged (40,000 rpm, 60 min, 4° C.) using an ultracentrifuge (Beckman, […]). To the obtained pellets was added a suspending buffer [50 mM Tris-HCl, 1 mM EDTA, Protease inhibitor Complete (Roche), pH 7.4], and the pellets were suspended by pipetting. The protein concentration of this suspension was measured, diluted to 2 mg/mL to give cellular membrane fractions of CHO-hMelR7 and CHO-hMT2 cells. […] Protein was quantified using BCA protein assay kit (Pierce) with BSA as the standard. (4) Preparation of Membrane Fraction Suspension Immediately before use, the membrane fractions of CHO-hMelR7 and CHO-hMT2 cells of the above-mentioned (3) were diluted 20-fold with assay buffer (50 mM Tris-HCl, pH 7.7). (5) Preparation of 2-[^125I] […] (6) Binding Reaction The assay buffer (80 μL) of the above-mentioned (4) was added to each well of a 96-well plate (type 3363, Corning). […] (7) Measurement Using a cell harvester (PerkinElmer), the binding reaction mixture in each well of the 96-well plate was transferred to a treated (immersed in 50 mM Tris, pH 7.7 in advance) filter plate (UniFilter GF/C, PerkinElmer) and filtered. After filtration, the plate was washed 4 times with the assay buffer, and dried in a dryer (42° C.) for 2 hr or more. 25 μL of a liquid scintillator (MicroScint O, PerkinElmer) was added to each well of the filter plate after drying, and the luminescence of scintillator was measured by TopCount (PerkinElmer) for 1 min. Specific binding is a value obtained by subtracting nonspecific binding from the total binding.", "data": [{"smiles": "CC(=O)NCCC1CCc2cnc3c(c21)CCO3", "note": "(single isomer, unassigned) [Example 20, optically active N-[2-(1,6,7,8-tetrahydro-2H-cyclopenta[d]furo[2,3-b]pyridin-8-yl)ethyl]acetamide]", "values": [{"measurement": "IC50", "result": "≤ 100", "unit": "nM"}]}, {"smiles": "CCC(=O)NCCC1CCc2cnc3c(c21)CCO3", "note": "(single isomer, unassigned) [Example 23, optically active N-[2-(1,6,7,8-tetrahydro-2H-cyclopenta[d]furo[2,3-b]pyridin-8-yl)ethyl]propanamide]", "values": [{"measurement": "IC50", "result": "≤ 100", "unit": "nM"}]}, {"smiles": "CCC(=O)NCCc1c(-c2ccccc2)nn2ccc3occc3c12", "note": "[Example 2, N-[2-(2-phenylfuro[3,2-c]pyrazolo[1,5-a]pyridin-1-yl)ethyl]propanamide]", "values": [{"measurement": "IC50", "result": "≤ 100", "unit": "nM"}]}, {"smiles": "CC(=O)NCCc1cnn2ccc3c(c12)CCO3", "note": "[Example 3, N-[2-(8,9-dihydrofuro[3,2-c]pyrazolo[1,5-a]pyridin-1-yl)ethyl]acetamide]", "values": [{"measurement": "IC50", "result": "≤ 100", "unit": "nM"}]}, {"smiles": "CCC(=O)NCCc1cnn2ccc3c(c12)CCO3", "note": "[Example 4, N-[2-(8,9-dihydrofuro[3,2-c]pyrazolo[1,5-a]pyridin-1-yl)ethyl]propanamide]", "values": [{"measurement": "IC50", "result": "≤ 100", "unit": "nM"}]}, {"smiles": "CCCC(=O)NCCc1cnn2ccc3c(c12)CCO3", "note": "[Example 5, N-[2-(8,9-dihydrofuro[3,2-c]pyrazolo[1,5-a]pyridin-1-yl)ethyl]butanamide]", "values": [{"measurement": "IC50", "result": "≤ 100", "unit": "nM"}]}, {"smiles": "CCC(=O)NCCc1c(-c2ccccc2)nn2ccc3c(c12)CCO3", "note": "[Example 8, N-[2-(2-phenyl-8,9-dihydrofuro[3,2-c]pyrazolo[1,5-a]pyridin-1-yl)ethyl]propanamide]", "values": [{"measurement": "IC50", "result": "≤ 100", "unit": "nM"}]}, {"smiles": "CC(=O)NCCc1c(-c2ccc(F)cc2)nn2ccc3c(c12)CCO3", "note": "[Example 15, N-{2-[2-(4-fluorophenyl)-8,9-dihydrofuro[3,2-c]pyrazolo[1,5-a]pyridin-1-yl]ethyl}acetamide]", "values": [{"measurement": "IC50", "result": "≤ 100", "unit": "nM"}]}, {"smiles": "CCC(=O)NCCc1c(-c2ccc(F)cc2)nn2ccc3c(c12)CCO3", "note": "[Example 16, N-{2-[2-(4-fluorophenyl)-8,9-dihydrofuro[3,2-c]pyrazolo[1,5-a]pyridin-1-yl]ethyl}propanamide]", "values": [{"measurement": "IC50", "result": "≤ 100", "unit": "nM"}]}, {"smiles": "CC(=O)NCCc1c(-c2ccccc2)cn2ccc3c(c12)CCO3", "note": "[Example 17, N-[2-(8-phenyl-1,2-dihydrofuro[2,3-g]indolizin-9-yl)ethyl]acetamide]", "values": [{"measurement": "IC50", "result": "≤ 100", "unit": "nM"}]}, {"smiles": "CCC(=O)NCCC1CCc2cnc3c(c21)CCO3", "note": "(stereo not drawn) [Example 22, N-[2-(1,6,7,8-tetrahydro-2H-cyclopenta[d]furo[2,3-b]pyridin-8-yl)ethyl]propanamide]", "values": [{"measurement": "IC50", "result": "≤ 100", "unit": "nM"}]}, {"smiles": "CCCC(=O)NCCC1CCc2cnc3c(c21)CCO3", "note": "(stereo not drawn) [Example 25, N-[2-(1,6,7,8-tetrahydro-2H-cyclopenta[d]furo[2,3-b]pyridin-8-yl)ethyl]butanamide]", "values": [{"measurement": "IC50", "result": "≤ 100", "unit": "nM"}]}, {"smiles": "CCC(=O)NCCC1=CCc2cnc3c(c21)CCO3", "note": "[Example 29, N-[2-(1,6-dihydro-2H-cyclopenta[d]furo[2,3-b]pyridin-8-yl)ethyl]propanamide]", "values": [{"measurement": "IC50", "result": "≤ 100", "unit": "nM"}]}, {"smiles": "CC(=O)NCCC1=C(C(C)C)Cc2cnc3c(c21)CCO3", "note": "[Example 30, N-[2-(7-isopropyl-1,6-dihydro-2H-cyclopenta[d]furo[2,3-b]pyridin-8-yl)ethyl]acetamide]", "values": [{"measurement": "IC50", "result": "≤ 100", "unit": "nM"}]}, {"smiles": "CCC(=O)NCCC1=C(C(C)C)Cc2cnc3c(c21)CCO3", "note": "[Example 31, N-[2-(7-isopropyl-1,6-dihydro-2H-cyclopenta[d]furo[2,3-b]pyridin-8-yl)ethyl]propanamide]", "values": [{"measurement": "IC50", "result": "≤ 100", "unit": "nM"}]}, {"smiles": "CCc1nn2ccc3c(c2c1C(C)CNC(C)=O)CCO3", "note": "(stereo not drawn) [Example 37, N-[2-(2-ethyl-8,9-dihydrofuro[3,2-c]pyrazolo[1,5-a]pyridin-1-yl)propyl]acetamide]", "values": [{"measurement": "IC50", "result": "≤ 100", "unit": "nM"}]}, {"smiles": "CCC(=O)NCC(C)c1c(CC)nn2ccc3c(c12)CCO3", "note": "(stereo not drawn) [Example 38, N-[2-(2-ethyl-8,9-dihydrofuro[3,2-c]pyrazolo[1,5-a]pyridin-1-yl)propyl]propanamide]", "values": [{"measurement": "IC50", "result": "≤ 100", "unit": "nM"}]}, {"smiles": "CCc1nn2ccc3oc(C)cc3c2c1CCNC(C)=O", "note": "[Example 39, N-[2-(2-ethyl-8-methylfuro[3,2-c]pyrazolo[1,5-a]pyridin-1-yl)ethyl]acetamide]", "values": [{"measurement": "IC50", "result": "≤ 100", "unit": "nM"}]}]}
